Source: patent US12060349B2, “Glucosylceramide synthase inhibitors” (Genzyme Corporation, priority 2012, dated 2024)
Like-named read-outs stand apart in the source and are kept apart here.

Key:
C32 human melanoma cells = assay: cell viability in the C32 cell-based assay (Viability, C32 IC50); settings: Homo sapiens, concentration causing 50% cell death, values greater than 10 represent a lack of cell death
Outline: (§1)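 Cell death was scored within the cell-based GM3 experiment for each line. The viability value is the concentration producing 50% death, and numbers exceeding 10 signify no cytotoxicity.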

B16 mouse melanoma cells = assay: cell viability in the B16 cell-based assay (Viability, B16 IC50); settings: Mus musculus
Outline: as §1

[1] = tested on: GM3 expression on the cell surface, C32 human melanoma cells; assay: cell based phenotypic assay, cell surface GM3 by antibody mediated immunofluorescence, C32 (GM3 C32 IC50); settings: Homo sapiens, 50% inhibition of GM3 expression on the cell surface
Outline: (§2)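 Both lines undergo the phenotypic GM3 assay, and viability is recorded from that same cell-based run.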

[2] = tested on: GM3 expression on the cell surface, B16 mouse melanoma cells; assay: cell based phenotypic assay, cell surface GM3 by antibody mediated immunofluorescence, B16 (GM3 B16 IC50); settings: Mus musculus, 50% inhibition of GM3 expression on the cell surface
Outline: as §2

[3] = biological target: T1, glucosylceramide synthase (Homo sapiens, UniProt Q16739); assay: microsomal assay measuring conversion of ceramide to glucosylceramide by HPLC (GCS IC50); assay type: biochemical; settings: concentration causing 50% inhibition of glucosylceramide synthase activity
T1 construct: Microsomes were isolated from A375 human melanoma cells; endogenous in cells; host or cells: A375 human melanoma cells (microsomal fraction, 100,000 g pellet)
T1 sequence (Q16739 1-394): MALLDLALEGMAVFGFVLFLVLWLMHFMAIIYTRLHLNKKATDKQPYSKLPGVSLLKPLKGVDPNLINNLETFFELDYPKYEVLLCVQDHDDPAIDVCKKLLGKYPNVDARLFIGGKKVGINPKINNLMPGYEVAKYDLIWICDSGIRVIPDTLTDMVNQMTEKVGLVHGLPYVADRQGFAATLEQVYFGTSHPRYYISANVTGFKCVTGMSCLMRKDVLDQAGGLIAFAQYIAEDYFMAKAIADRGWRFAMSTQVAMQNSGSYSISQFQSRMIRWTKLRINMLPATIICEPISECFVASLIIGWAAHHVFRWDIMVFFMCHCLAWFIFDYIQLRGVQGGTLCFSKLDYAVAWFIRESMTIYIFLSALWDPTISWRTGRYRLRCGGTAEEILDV
Outline: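 IC50 is the compound concentration halving glucosylceramide synthase activity. Activity was measured in microsomes, with HPLC quantifying glucosylceramide formed from ceramide.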

[4] = C32, C32 cells, read-out: Viability, C32 IC50
[5] = B16, B16 cells, concentration causing 50% cell death, values greater than 10 represent a lack of cell death, read-out: Viability, B16 IC50
[6] = C32 human melanoma cells, read-out: GM3 C32 IC50
[7] = B16 mouse melanoma cells, read-out: GM3 B16 IC50
[8] = C32, read-out: Viability, C32 IC50, C32 cells
[9] = B16, read-out: Viability, B16 IC50
[10] = read-out: GM3 C32 IC50, C32 human melanoma cells
[11] = read-out: GM3 B16 IC50, B16 mouse melanoma cells

Row | Compound | IC50 (C32 human melanoma cells; [4]) [µM] | IC50 (B16 mouse melanoma cells; [5]) [µM] | IC50 [1, 6] [µM] | IC50 [2, 7] [µM] | IC50 [3] [µM] | IC50 (C32 human melanoma cells; [8]) [µM] | IC50 (B16 mouse melanoma cells; [9]) [µM] | IC50 [1, 10] [µM] | IC50 [2, 11] [µM]
1 | CC(C)(NC(=O)NC1(C)CN2CCC1CC2)c1ccc(-c2ccc(OCCn3ccnn3)cc2)cc1 (stereo not drawn) [Example 183, 1-(2-(4′-(2-(1H-1,2,3-Triazol-1-yl)ethoxy)-[1,1′-biphenyl]-4-yl)propan-2-yl)-3-(3-methylquinuclidin-3-yl)urea] | 2.51 | 5.62 | 0.0102 | 0.969 | 0.0316 |  |  |  | 
2 | CCC1(NC(=O)NC(C)(C)c2ccc(-c3ccc(OCCn4ccnn4)cc3)cc2)CN2CCC1CC2 (stereo not drawn) [Example 184, 1-(2-(4′-(2-(1H-1,2,3-Triazol-1-yl)ethoxy)-[1,1′-biphenyl]-4-yl)propan-2-yl)-3-(3-ethylquinuclidin-3-yl)urea] | 1 | 3.16 | 0.00346 | 0.188 | 0.0211 |  |  |  | 
3 | CC(C)(NC(=O)NC1(C)CCN2CCC1CC2)c1ccc(-c2ccc(OCCn3ccnn3)cc2)cc1 (stereo not drawn) [Example 185, 1-(2-(4′-(2-(1H-1,2,3-Triazol-1-yl)ethoxy)-[1,1′-biphenyl]-4-yl)propan-2-yl)-3-(4-methyl-1-azabicyclo[3.2.2]nonan-4-yl)urea] | 1 | 3.16 | 0.00387 | 0.0999 | 0.0129 |  |  |  | 
4 | CC(C)(NC(=O)OC1CCN2CCC1CC2)c1ccc(-c2ccc(OCCCn3ccnn3)cc2)cc1 (stereo not drawn) [Example 187, 1-Azabicyclo[3.2.2]nonan-4-yl (2-(4′-(3-(1H-1,2,3-triazol-1-yl)propoxy)-[1,1′-biphenyl]-4-yl)propan-2-yl)carbamate] | 1 | ≥ 10 | 0.00774 | 0.106 | 0.0202 |  |  |  | 
5 | CC(C)(NC(=O)N1CCN2CCC1CC2)c1ccc(-c2ccc(OCCCn3ccnn3)cc2)cc1 [Example 188, N-(2-(4′-(3-(1H-1,2,3-Triazol-1-yl)propoxy)-[1,1′-biphenyl]-4-yl)propan-2-yl)-1,4-diazabicyclo[3.2.2]nonane-4-carboxamide] | 1 | ≥ 10 | 0.0774 | 0.365 | 0.597 |  |  |  | 
6 | CC(C)(NC(=O)OC1CN2CCC1CC2)c1ccc(-c2ccc(OCCCC#N)cc2)cc1 (stereo not drawn) [Example 189, Quinuclidin-3-yl (2-(4′-(3-cyanopropoxy)-[1,1′-biphenyl]-4-yl)propan-2-yl)carbamate] |  |  |  |  | 0.00957 | 8.47 | ≥ 10 | 0.00322 | 0.0865
7 | CC(C)(NC(=O)OC1CN2CCC1CC2)c1ccc(-c2ccc(OCC#N)cc2)cc1 (stereo not drawn) [Example 190, Quinuclidin-3-yl (2-(4′-(cyanomethoxy)-[1,1′-biphenyl]-4-yl)propan-2-yl)carbamate] |  |  |  |  | 0.00259 | 1 | ≥ 10 | 0.000775 | 0.0477
8 | CC1(COc2ccc(-c3ccc(C(C)(C)NC(=O)OC4CN5CCC4CC5)cc3)cc2)COC1 (stereo not drawn) [Example 191, Quinuclidin-3-yl (2-(4′-((3-methyloxetan-3-yl)methoxy)-[1,1′-biphenyl]-4-yl)propan-2-yl)carbamate] |  |  |  |  | 0.0072 | 1 | 5.25 | 0.00324 | 0.0718
9 | CC1(COc2ccc(-c3ccc(C(C)(C)NC(=O)OC4CCN5CCC4CC5)cc3)cc2)COC1 (stereo not drawn) [Example 192, 1-Azabicyclo[3.2.2]nonan-4-yl (2-(4′-((3-methyloxetan-3-yl)methoxy)-[1,1′-biphenyl]-4-yl)propan-2-yl)carbamate] | 1 | 5.84 | 0.00186 | 0.0816 | 0.00569 |  |  |  | 
10 | CC1(COc2ccc(-c3ccc(C(C)(C)NC(=O)N4CCN5CCC4CC5)cc3)cc2)COC1 [Example 193, N-(2-(4′-((3-Methyloxetan-3-yl)methoxy)-[1,1′-biphenyl]-4-yl)propan-2-yl)-1,4-diazabicyclo[3.2.2]nonane-4-carboxamide] | ≥ 10 | ≥ 10 | 0.0447 | 0.318 | 0.297 |  |  |  | 
11 | CC(C)(NC(=O)OC1CN2CCC1CC2)c1ccc(-c2ccc(OCCC3COC3)cc2)cc1 (stereo not drawn) [Example 194, Quinuclidin-3-yl (2-(4′-(2-(oxetan-3-yl)ethoxy)-[1,1′-biphenyl]-4-yl)propan-2-yl)carbamate] |  |  |  |  | 0.0105 | 1 | 9.93 | 0.00406 | 0.115
12 | CC(C)(NC(=O)OC1CCN2CCC1CC2)c1ccc(-c2ccc(OCCC3COC3)cc2)cc1 (stereo not drawn) [Example 195, 1-Azabicyclo[3.2.2]nonan-4-yl (2-(4′-(2-(oxetan-3-yl)ethoxy)-[1,1′-biphenyl]-4-yl)propan-2-yl)carbamate] | 0.1 | 8.03 | 0.00101 | 0.0948 | 0.00567 |  |  |  | 
13 | CC(C)(NC(=O)N1CCN2CCC1CC2)c1ccc(-c2ccc(OCCC3COC3)cc2)cc1 [Example 196, N-(2-(4′-(2-(Oxetan-3-yl)ethoxy)-[1,1′-biphenyl]-4-yl)propan-2-yl)-1,4-diazabicyclo[3.2.2]nonane-4-carboxamide] | 1 | ≥ 10 | 0.0283 | 0.274 | 0.538 |  |  |  | 
14 | COCCOCc1ccc(-c2ccc(C(C)(C)NC(=O)OC3CN4CCC3CC4)cc2)cc1 (stereo not drawn) [Example 197, Quinuclidin-3-yl (2-(4′-((2-methoxyethoxy)methyl)-[1,1′-biphenyl]-4-yl)propan-2-yl)carbamate] |  |  |  |  | 0.0322 | ≥ 10 | ≥ 10 | 0.00967 | 0.309
15 | COCCOCc1ccc(-c2ccc(C(C)(C)NC(=O)NC3(C)CN4CCC3CC4)cc2)cc1 (stereo not drawn) [Example 198, 1-(2-(4′-((2-Methoxyethoxy)methyl)-[1,1′-biphenyl]-4-yl)propan-2-yl)-3-(3-methylquinuclidin-3-yl)urea] | ≥ 10 | ≥ 10 | 0.00324 | 0.118 | 0.0252 |  |  |  | 
16 | CCC1(NC(=O)NC(C)(C)c2ccc(-c3ccc(COCCOC)cc3)cc2)CN2CCC1CC2 (stereo not drawn) [Example 199, 1-(3-Ethylquinuclidin-3-yl)-3-(2-(4′-((2-methoxyethoxy)methyl)-[1,1′-biphenyl]-4-yl)propan-2-yl)urea] | 1 | 1 | 0.0018 | 0.0317 | 0.0147 |  |  |  | 
17 | COCCOCc1ccc(-c2ccc(C(C)(C)NC(=O)OC3CCN4CCC3CC4)cc2)cc1 (stereo not drawn) [Example 200, 1-Azabicyclo[3.2.2]nonan-4-yl (2-(4′-((2-methoxyethoxy)methyl)-[1,1′-biphenyl]-4-yl)propan-2-yl)carbamate] | 1 | ≥ 10 | 0.00616 | 0.22 | 0.024 |  |  |  | 
18 | COCCOCc1ccc(-c2ccc(C(C)(C)NC(=O)NC3(C)CCN4CCC3CC4)cc2)cc1 (stereo not drawn) [Example 201, 1-(2-(4′-((2-Methoxyethoxy)methyl)-[1,1′-biphenyl]-4-yl)propan-2-yl)-3-(4-methyl-1-azabicyclo[3.2.2]nonan-4-yl)urea] | 0.316 | ≥ 10 | 0.00076 | 0.023 | 0.0139 |  |  |  | 
19 | COCCOCc1ccc(-c2ccc(C(C)(C)NC(=O)N3CCN4CCC3CC4)cc2)cc1 [Example 202, N-(2-(4′-((2-Methoxyethoxy)methyl)-[1,1′-biphenyl]-4-yl)propan-2-yl)-1,4-diazabicyclo[3.2.2]nonane-4-carboxamide] | ≥ 10 | ≥ 10 | 0.154 | 0.933 | 2.35 |  |  |  | 
20 | COCCOCc1ccc(-c2ccc(C3(NC(=O)OC4CCN5CCC4CC5)CC3)cc2)cc1 (stereo not drawn) [Example 204, 1-Azabicyclo[3.2.2]nonan-4-yl (1-(4′-((2-methoxyethoxy)methyl)-[1,1′-biphenyl]-4-yl)cyclopropyl)carbamate] | 1.47 | ≥ 10 | 0.00826 | 0.0993 | 0.0433 |  |  |  | 
21 | COCCOCc1ccc(-c2ccc(C3(NC(=O)NC4(C)CN5CCC4CC5)CC3)cc2)cc1 (stereo not drawn) [Example 205, 1-(1-(4′-((2-Methoxyethoxy)methyl)-[1,1′-biphenyl]-4-yl)cyclopropyl)-3-(3-methylquinuclidin-3-yl)urea] | 1.78 | ≥ 10 | 0.00531 | 0.156 | 0.0515 |  |  |  | 
